Laboratory results: ChEMBL document CHEMBL5528074 (J Med Chem, 2024)

Legend:
[1] = target: T1, G-protein coupled receptor 183 (Homo sapiens, UniProt P32249)
Description: Antagonist activity at GPR183 (unknown origin) transfected in HEK293 cells incubated for 30 mins by Glosensor cAMP assay

U-937 = experiment: Antimigratory activity against human U-937 cells assessed as inhibition of 7alpha,25-dihydroxycholesterol induced cell migration by CCK-8 method; format: functional, cell-based
[2] = Half life in C57BL/6 mouse at 1 mg/kg, iv measured upto 24 hrs by LC-MS/MS analysis; format: ADME, organism-based; details: in vivo
[3] = AUC infinity in C57BL/6 mouse at 1 mg/kg, iv measured upto 24 hrs by LC-MS/MS analysis; format: ADME, organism-based; details: in vivo
[4] = Oral bioavailability in C57BL/6 mouse at 3 mg/kg measured upto 24 hrs by LC-MS/MS analysis; format: ADME, organism-based; details: in vivo
[5] = Metabolic stability in mouse liver microsomes assessed as intrinsic clearance; format: ADME, Microsome; details: read-out: CLH
[6] = Cmax in C57BL/6 mouse at 1 mg/kg, iv measured upto 24 hrs by LC-MS/MS analysis; format: ADME, organism-based; details: in vivo
[7] = Half life in C57BL/6 mouse at 3 mg/kg, po measured upto 24 hrs by LC-MS/MS analysis; format: ADME, organism-based; details: in vivo
[8] = Apparent volume of distribution in C57BL/6 mouse at 1 mg/kg, iv measured upto 24 hrs by LC-MS/MS analysis; format: ADME, organism-based; details: in vivo, read-out: Vz
[9] = Clearance in C57BL/6 mouse at 1 mg/kg, iv measured upto 24 hrs by LC-MS/MS analysis; format: ADME, organism-based; details: in vivo
[10] = AUC infinity in C57BL/6 mouse at 3 mg/kg, po measured upto 24 hrs by LC-MS/MS analysis; format: ADME, organism-based; details: in vivo
[11] = Cmax in C57BL/6 mouse at 3 mg/kg, po measured upto 24 hrs by LC-MS/MS analysis; format: ADME, organism-based; details: in vivo
[12] = target: T1, G-protein coupled receptor 183; experiment: Agonist activity at GPR183 (unknown origin) transfected in HEK293 cells assessed as reduction in forskolin induced cAMP generation incubated for 30 mins by Glosensor cAMP assay; format: functional, cell-based
[13] = target: T1, G-protein coupled receptor 183; experiment: Agonist activity at GPR183 (unknown origin) transfected in HEK293 cells co-expressing LgBiT-fused SmBiT-beta-arrestin assessed as beta-arrestin recruitment using nanoluciferase as substrate incubated for 30 mins by bioluminescence based NanoBiT assay; format: functional, cell-based
[14] = target: T1, G-protein coupled receptor 183; experiment: Agonist activity at GPR183 (unknown origin) transfected in HEK293 cells cotransfected with CRE-luciferase plasmid assessed as impairment of forskolin induced luciferase activity preincubated for 30 mins followed by forskolin induction and measured after 4 hrs by dual luciferase assay; format: functional, cell-based

T1 sequence (P32249 whole entry): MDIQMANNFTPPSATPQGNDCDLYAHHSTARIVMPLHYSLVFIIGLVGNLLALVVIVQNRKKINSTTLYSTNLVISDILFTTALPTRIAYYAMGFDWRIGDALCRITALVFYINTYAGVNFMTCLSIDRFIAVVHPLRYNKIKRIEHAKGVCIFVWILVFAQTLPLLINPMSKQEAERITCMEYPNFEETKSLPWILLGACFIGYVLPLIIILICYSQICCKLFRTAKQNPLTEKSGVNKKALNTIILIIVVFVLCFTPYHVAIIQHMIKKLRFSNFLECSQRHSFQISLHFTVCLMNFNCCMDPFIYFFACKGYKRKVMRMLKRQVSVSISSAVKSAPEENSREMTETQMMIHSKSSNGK

SMILES | IC50 [1] [nM] | other results
Cn1cnc2cc(C(=O)N3CCN(C(=O)/C=C/c4ccc(Br)cc4)CC3)ccc21 | 442 | 
CNc1nc2ccc(C(=O)N3CCN(C(=O)/C=C/c4ccc(Br)cc4)CC3)cc2s1 | 6.23 | 
COc1ccc(C(=O)NCC2CCN(C(=O)/C=C/c3ccc(Br)cc3)CC2)cc1 | > 10000 | 
COc1ccc(C(=O)N2CCN(C(=O)/C=C/c3ccc(Br)cc3)CC2)cc1 |  | IC50 (U-937): 4.5 nM; half-life [2]: 1.17 h; AUC(0-inf) [3]: 966 ng·h/mL; bioavailability [4]: 71.4%; microsomal CLint [5]: 46 µL/min/mg; Cmax [6]: 612 ng/mL; half-life [7]: 2.19 h; Vd [8]: 1.75 L/kg; clearance [9]: 17.3 mL/min/kg; AUC(0-inf) [10]: 2070 ng·h/mL; Cmax [11]: 640 ng/mL
COc1ccc(NC(=O)CC2CCN(C(=O)/C=C/c3ccc(Br)cc3)CC2)cc1 | 19.7 | 
Nc1nc2ccc(C(=O)N3CCN(C(=O)/C=C/c4ccc(F)cc4F)CC3)cc2s1 | 8310 | 
C[C@H](CCCC(C)(C)O)[C@H]1CCC2C3C(CC[C@@]21C)[C@@]1(C)CC[C@H](O)CC1=C[C@H]3O (stereo partly specified) |  | EC50 [12]: 0.15 nM; EC50 [13]: 4.63 nM; EC50 [14]: 3.22 nM; Activity ([14]; filed as agonist, time 4.5 hrs): Dose-Dependent Effect
COc1ccc(C(=O)NCC2(F)CCN(C(=O)/C=C/c3ccc(Br)cc3)CC2)cc1 | 66.2 | 
N#Cc1ccc(/C=C/C(=O)N2CCN(C(=O)c3ccc4nc(N)sc4c3)CC2)cc1 | 260 | 
Cn1ccc2ccc(C(=O)N3CCN(C(=O)/C=C/c4ccc(Br)cc4)CC3)cc21 | 7.9 | 
COc1ccc(C(=O)N2CC3CCC2CN3C(=O)/C=C/c2ccc(Br)cc2)cc1 (stereo unspecified) | > 10000 | 
Nc1nc2ccc(C(=O)N3CCN(C(=O)/C=C/c4ccc(Cl)cc4)CC3)cc2s1 | 15.9 | 
Cc1nc2ccc(C(=O)N3CCN(C(=O)/C=C/c4ccc(Br)cc4)CC3)cc2[nH]1 | > 10000 | 
Nc1nc2ccc(C(=O)N3CCN(C(=O)/C=C/c4ccc(C(F)(F)F)cc4)CC3)cc2s1 | 30.1 | 
CC(=O)Nc1nc2ccc(C(=O)N3CCN(C(=O)/C=C/c4ccc(Br)cc4)CC3)cc2s1 | 18.9 | 
Cc1c[nH]c2cc(C(=O)N3CCN(C(=O)/C=C/c4ccc(Br)cc4)CC3)ccc12 | 18.9 | 
O=C(/C=C/c1ccc(Br)cc1)N1CCN(C(=O)c2ccc3ncsc3c2)CC1 | 3.05 | 
O=C(/C=C/c1ccc(Br)cc1)N1CCN(C(=O)c2ccc3[nH]c(=O)[nH]c3c2)CC1 | > 10000 | 
